The supplement of paper PMC6045584
± gives the standard deviation of the averaged measurements.

Columns and labels:
EVEROLIMUS = compound: CO[C@H]1C[C@@H]2CC[C@@H](C)[C@@](O)(O2)C(=O)C(=O)N2CCCC[C@H]2C(=O)O[C@H]([C@H](C)C[C@@H]2CC[C@@H](OCCO)[C@H](OC)C2)CC(=O)[C@H](C)/C=C(\C)[C@@H](O)[C@@H](OC)C(=O)[C@H](C)C[C@H](C)/C=C/C=C/C=C/1C [EVEROLIMUS]; experiment: surviving fraction relative to DMSO-only wells; higher = less growth inhibition; settings: exposure time: 5 days
Method in brief: (§1)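 Surviving fraction is CellTiter-Glo luminescence divided by the median of wells given DMSO only. For this, log-phase tumour cell lines went into 384-well plates at 250–500 cells per well and, 24 hours later, into five days of continuous inhibitor exposure at 0.5, 1, 5, 10, 50, 100, 500 and 1000 nM. Lines were screened three times and retained only if replicate Pearson r >0.7 and median Z' >0.3.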

[1] = compound: Cc1nc(Nc2n[nH]c3c2CN(C(=O)N[C@H](CN(C)C)c2ccccc2)C3(C)C)c2sccc2n1; experiment: as above; settings: exposure time: 5 days
Method in brief: as §1

| Test System | surviving fraction (EVEROLIMUS; 0.5 nM) | surviving fraction (EVEROLIMUS; 1 nM) | surviving fraction (EVEROLIMUS; 5 nM) | surviving fraction (EVEROLIMUS; 10 nM) | surviving fraction (EVEROLIMUS; 50 nM) | surviving fraction (EVEROLIMUS; 100 nM) | surviving fraction (EVEROLIMUS; 500 nM) | surviving fraction (EVEROLIMUS; 1000 nM) | surviving fraction ([1]; 0.5 nM) | surviving fraction ([1]; 1 nM) | surviving fraction ([1]; 5 nM) | surviving fraction ([1]; 10 nM) | surviving fraction ([1]; 50 nM) | surviving fraction ([1]; 100 nM) | surviving fraction ([1]; 500 nM) | surviving fraction ([1]; 1000 nM) |
| --- | --- | --- | --- | --- | --- | --- | --- | --- | --- | --- | --- | --- | --- | --- | --- | --- |
| NY BONE | 0.789 ± 0.012 | 0.766 ± 0.024 | 0.729 ± 0.01 | 0.688 ± 0.019 | 0.692 ± 0.013 | 0.707 ± 0.015 | 0.644 ± 0.032 | 0.6403 ± 0.0042 | 0.934 ± 0.041 | 0.725 ± 0.025 | 0.527 ± 0.016 | 0.467 ± 0.031 | 0.447 ± 0.014 | 0.402 ± 0.018 | 0.258 ± 0.011 | 0.0807 ± 0.0051 |
| OS25HAL BONE | 0.863 ± 0.044 | 0.846 ± 0.0091 | 0.679 ± 0.029 | 0.622 ± 0.042 | 0.598 ± 0.014 | 0.581 ± 0.039 | 0.546 ± 0.034 | 0.52 ± 0.022 | 0.983 ± 0.016 | 0.954 ± 0.024 | 0.597 ± 0.036 | 0.367 ± 0.029 | 0.281 ± 0.007 | 0.258 ± 0.015 | 0.24 ± 0.032 | 0.218 ± 0.0047 |
| OSHN BONE | 1.06 ± 0.014 | 1.03 ± 0.038 | 0.991 ± 0.035 | 0.983 ± 0.026 | 1.05 ± 0.054 | 1.06 ± 0.024 | 1.04 ± 0.057 | 1.06 ± 0.023 | 1.06 ± 0.037 | 1.01 ± 0.019 | 0.4963 ± 0.004 | 0.361 ± 0.026 | 0.31 ± 0.017 | 0.347 ± 0.031 | 0.366 ± 0.015 | 0.279 ± 0.018 |
| PCI30 HEADNECK | 0.715 ± 0.07 | 0.6 ± 0.029 | 0.52 ± 0.027 | 0.508 ± 0.02 | 0.5 ± 0.051 | 0.508 ± 0.025 | 0.463 ± 0.03 | 0.468 ± 0.013 | 0.882 ± 0.021 | 0.823 ± 0.028 | 0.579 ± 0.015 | 0.599 ± 0.038 | 0.538 ± 0.022 | 0.514 ± 0.024 | 0.344 ± 0.014 | 0.0833 ± 0.019 |
| RDES SOFT TISSUE | 1.09 ± 0.067 | 1.1 ± 0.099 | 1.11 ± 0.039 | 1.11 ± 0.087 | 0.981 ± 0.049 | 1.03 ± 0.12 | 1 ± 0.13 | 1.04 ± 0.063 | 0.764 ± 0.075 | 0.577 ± 0.1 | 1.16 ± 0.32 | 1.02 ± 0.14 | 0.756 ± 0.037 | 0.763 ± 0.1 | 0.525 ± 0.044 | 0.503 ± 0.094 |
| S68 BREAST | 0.839 ± 0.17 | 0.547 ± 0.045 | 0.479 ± 0.048 | 0.434 ± 0.049 | 0.356 ± 0.06 | 0.336 ± 0.043 | 0.26 ± 0.027 | 0.285 ± 0.024 | 1.04 ± 0.21 | 0.77 ± 0.013 | 0.481 ± 0.066 | 0.321 ± 0.04 | 0.288 ± 0.081 | 0.318 ± 0.0098 | 0.25 ± 0.014 | 0.234 ± 0.017 |
| SAOS2 BONE | 1.13 ± 0.094 | 1.12 ± 0.054 | 1.0323 ± 0.00058 | 0.943 ± 0.044 | 0.909 ± 0.048 | 0.936 ± 0.025 | 0.826 ± 0.064 | 0.71 ± 0.049 | 0.797 ± 0.0017 | 0.645 ± 0.062 | 0.509 ± 0.016 | 0.4777 ± 0.004 | 0.42 ± 0.019 | 0.376 ± 0.025 | 0.12 ± 0.018 | 0.034 ± 0.0017 |
| SCC36 HEADNECK | 1.07 ± 0.056 | 1.09 ± 0.14 | 1.03 ± 0.018 | 0.899 ± 0.061 | 1.008 ± 0.0093 | 0.909 ± 0.097 | 0.842 ± 0.031 | 0.733 ± 0.014 | 0.862 ± 0.084 | 0.681 ± 0.052 | 0.258 ± 0.011 | 0.188 ± 0.019 | 0.152 ± 0.011 | 0.164 ± 0.029 | 0.101 ± 0.0062 | 0.106 ± 0.0084 |
| SCC47 HEADNECK | 1.02 ± 0.053 | 1 ± 0.017 | 1.01 ± 0.053 | 0.95 ± 0.024 | 0.961 ± 0.053 | 0.961 ± 0.043 | 0.937 ± 0.16 | 0.843 ± 0.032 | 1.06 ± 0.018 | 1.08 ± 0.033 | 0.815 ± 0.029 | 0.664 ± 0.074 | 0.47 ± 0.018 | 0.432 ± 0.044 | 0.292 ± 0.03 | 0.135 ± 0.023 |
| SCC90 HEADNECK | 0.857 ± 0.032 | 0.816 ± 0.08 | 0.68 ± 0.048 | 0.643 ± 0.028 | 0.556 ± 0.019 | 0.563 ± 0.039 | 0.522 ± 0.063 | 0.5257 ± 0.0047 | 0.981 ± 0.092 | 0.893 ± 0.19 | 0.516 ± 0.016 | 0.523 ± 0.027 | 0.488 ± 0.04 | 0.467 ± 0.028 | 0.185 ± 0.016 | 0.177 ± 0.034 |
